Here are results for 16 molecules from ChEMBL document CHEMBL4725295, “Synthesis and matched molecular pair analysis of covalent reversible inhibitors of the cysteine protease CPB” (Bioorg Med Chem Lett, 2020).

The structures appear in SMILES notation.

The test system of one data set is Leishmania. In words: Covalent reversible inhibition of Leishmania cysteine protease B using Z-Phe-Arg-7-amido-4-methylcoumarin as substrate incubated for 2 mins followed by substrate addition by fluorescence assay relative to control. On the set-up: concentration or dose not given beside the values.
The nature of data set [1]: Covalent reversible inhibition of Leishmania cysteine protease B using Z-Phe-Arg-7-amido-4-methylcoumarin as substrate incubated for 2 mins followed by substrate addition by fluorescence assay.
For data set [2], the target named is T1, Cathepsin B (Homo sapiens, UniProt P07858). In words: Inhibition of human cathepsin B.
The target of data set [3] is T1, Cathepsin B. In words: Inhibition of human cathepsin B relative to control.

The molecule `COc1ccc([C@@H](N[C@@H](Cc2ccccc2)C(=O)NC2(C#N)CC2)C(F)(F)F)cc1` registered an inhibition with Leishmania of 70%. In data set [1], this molecule registered a Ki of over 10 µM and a pKi of under 5.
As to `N#CC1(NC(=O)[C@@H](Cc2ccccc2)N[C@@H](c2ccc(Br)cc2)C(F)(F)F)CC1`, in data set [1], the Ki was over 10 µM and the pKi is reported as under 5.
The molecule `N#CC1(NC(=O)[C@H](Cc2ccccc2)N[C@@H](c2ccccc2)C(F)(F)F)CC1` showed a Ki on Cathepsin B [2] of over 10 µM. The “inhibition (INH)” value against Cathepsin B [3] worked out at 74.5%. Also, in data set [1], the Ki is 1.7 µM and the pKi is 5.77.
In data set [1], `N#CC1(NC(=O)[C@H](Cc2ccccc2)N[C@H](c2ccc(Br)cc2)C(F)(F)F)CC1` gave a Ki of 0.595 µM and a pKi of 6.23.
For `Cc1ccc([C@@H](N[C@@H](Cc2ccccc2)C(=O)NC2(C#N)CC2)C(F)(F)F)cc1`, the Ki at Cathepsin B [2] is over 10 µM. Besides, on Cathepsin B [3], the “inhibition (INH)” value came to 92%. Also, in data set [1], the Ki came out at 1.5 µM and the pKi stood at 5.8.
In data set [1], `COc1ccc([C@H](N[C@@H](Cc2ccccc2)C(=O)NC2(C#N)CC2)C(F)(F)F)cc1` returned a Ki of 3.23 µM and a pKi of 5.5.
For the molecule `Cc1ccc([C@@H](N[C@H](Cc2ccccc2)C(=O)NC2(C#N)CC2)C(F)(F)F)cc1`, the inhibition in the data set on Leishmania came out at 88%. In data set [1], this molecule showed a Ki of over 10 µM and a pKi of under 5.
In data set [1], `N#CC1(NC(=O)[C@@H](Cc2ccccc2)N[C@@H](c2ccccc2)C(F)(F)F)CC1` came in with a Ki of 4.4 µM and a pKi of 5.37.
In the same order, the values of `Cc1ccc([C@H](N[C@@H](Cc2ccccc2)C(=O)NC2(C#N)CC2)C(F)(F)F)cc1` are 4.07 µM and 5.4.
For the molecule `N#CC1(NC(=O)[C@H](Cc2ccccc2)N[C@@H](c2ccc(Br)cc2)C(F)(F)F)CC1`, the Ki at Cathepsin B [2] is over 10 µM; in data set [1], 0.151 µM. Also, the “inhibition (INH)” value against Cathepsin B [3] is over 95%. This molecule returned a pKi in data set [1] of 6.82.
Turning to `COc1ccc([C@H](N[C@H](Cc2ccccc2)C(=O)NC2(C#N)CC2)C(F)(F)F)cc1`, the inhibition in the data set on Leishmania came to 95%. In data set [1], this molecule showed a Ki of over 10 µM and a pKi of under 5.
As for `N#CC1(NC(=O)[C@H](Cc2ccccc2)N[C@H](c2ccccc2)C(F)(F)F)CC1`, in data set [1], the Ki was 1.41 µM and the pKi amounted to 5.85.
With `COc1ccc([C@@H](N[C@H](Cc2ccccc2)C(=O)NC2(C#N)CC2)C(F)(F)F)cc1`, in the data set with Leishmania, the inhibition is 95%. Further, in data set [1], the Ki is over 10 µM and the pKi is reported as under 5.
In data set [1], `N#CC1(NC(=O)[C@@H](Cc2ccccc2)N[C@H](c2ccccc2)C(F)(F)F)CC1` came in with a Ki of 7.65 µM and a pKi of 5.11.
In the case of `N#CC1(NC(=O)[C@@H](Cc2ccccc2)N[C@H](c2ccc(Br)cc2)C(F)(F)F)CC1`, the Ki on Cathepsin B [2] was over 10 µM. Further, the “inhibition (INH)” value against Cathepsin B [3] is given as over 95%. In data set [1], this molecule displayed a Ki of 0.795 µM and a pKi of 6.1.
Turning to `Cc1ccc([C@H](N[C@H](Cc2ccccc2)C(=O)NC2(C#N)CC2)C(F)(F)F)cc1`, the inhibition with Leishmania came to 86%. Besides, in data set [1], the Ki was over 10 µM and the pKi is given as under 5.
